Laboratory results reported in patent US12729407B2, “Mucins and isoforms thereof in diseases characterized by barrier dysfunction” (priority 2020, dated 2026).
Like-named read-outs stand apart in the source and are kept apart here.

System: Calu3 cells infected with SARS-CoV-2
Type: cell-based, human
[1] = Calu3 cells, SARS-CoV-2 0.1 MOI 2 h, then drug 48 h, vs untreated infected cells

Compound	MUC1 mRNA expression	MUC4 mRNA expression	MUC5AC mRNA expression	MUC5B mRNA expression	MUC13 mRNA expression	MUC21 mRNA expression	mucin hypersecretion (mucins of the signature: MUC13, MUC21, MUC16 and MUC1) (concluding remark on the Calu3 drug screen)	MUC1 mRNA expression [1]	MUC4 mRNA expression [1]	MUC21 mRNA expression [1]
NC(=O)c1nc(F)c[nH]c1=O [favipiravir]	increase	decrease	decrease	decrease	decrease	decrease	suppress mucin hypersecretion	–	–	–
Tocilizumab [toculizumab]	–	–	–	–	–	–	–	significantly reduce	significantly reduce	significantly reduce
